Source: patent publication US20220144848A1, “SUBSTITUTED OXOPYRIDINE DERIVATIVES” (Bayer Aktiengesellschaft, priority 2018, published 2022)

Tests used:
human plasma kallikrein = target: T1, human plasma kallikrein (Homo sapiens, UniProt P03952); assay: Determination of the plasma kallikrein activity (fluorogenic peptide substrate H-Pro-Phe-Arg-AMC); type: biochemical; details: plasma kallikrein from Kordia, 15 min preincubation, 30 min at 22° C., fluorescence; some as mean values from multiple determinations
T1 construct: purchased Kordia
T1 sequence (P03952 391-638 limits assumed): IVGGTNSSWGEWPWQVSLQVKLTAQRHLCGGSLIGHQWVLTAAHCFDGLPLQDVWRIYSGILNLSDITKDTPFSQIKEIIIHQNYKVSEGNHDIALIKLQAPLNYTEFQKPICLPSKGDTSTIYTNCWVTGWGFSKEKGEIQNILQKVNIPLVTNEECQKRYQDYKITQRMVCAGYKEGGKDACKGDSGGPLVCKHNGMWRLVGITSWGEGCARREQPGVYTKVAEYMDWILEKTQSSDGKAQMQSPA
T1 sequence (P03952 20-390 partner limits assumed): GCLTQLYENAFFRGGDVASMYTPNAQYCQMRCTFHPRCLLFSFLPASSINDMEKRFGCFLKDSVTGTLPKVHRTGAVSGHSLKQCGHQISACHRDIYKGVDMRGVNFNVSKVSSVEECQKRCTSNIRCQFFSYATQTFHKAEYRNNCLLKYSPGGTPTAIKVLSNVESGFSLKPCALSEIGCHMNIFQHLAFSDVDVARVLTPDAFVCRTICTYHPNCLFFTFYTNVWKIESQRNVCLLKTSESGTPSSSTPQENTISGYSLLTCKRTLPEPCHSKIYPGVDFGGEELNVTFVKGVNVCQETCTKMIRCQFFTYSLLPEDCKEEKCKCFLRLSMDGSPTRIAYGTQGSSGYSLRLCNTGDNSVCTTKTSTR
Experimental: (§1) To determine the plasma kallikrein inhibition of the substances according to the invention, a biochemical test system is used which utilizes the reaction of a peptidic plasma kallikrein substrate to determine the enzymatic activity of human plasma kallikrein. Here, plasma kallikrein cleaves from the peptidic plasma kallikrein substrate the C-terminal aminomethylcoumarin (AMC), the fluorescence of which is measured. The determinations are carried out in microtitre plates.
Test substances are dissolved in dimethyl sulfoxide and serially diluted in dimethyl sulfoxide (3000 μM to 0.0078 μM; resulting final concentrations in the test: 50 μM to 0.00013 μM). In each case 1 μl of the diluted substance solutions is placed into the wells of white microtitre plates from Greiner (384 wells). 20 μl of assay buffer (50 mM Tris/HCl pH 7.4; 100 mM sodium chloride solution; 5 mM of calcium chloride solution; 0.1% of bovine serum albumin) and 20 μl of plasma kallikrein from Kordia (0.6 nM in assay buffer) are then added successively. After 15 min of incubation, the enzyme reaction is started by addition of 20 μl of the substrate H-Pro-Phe-Arg-AMC dissolved in assay buffer (10 μM in assay buffer) from Bachem, the mixture is incubated at room temperature (22° C.) for 30 min and fluorescence is then measured (excitation: 360 nm, emission: 460 nm). The measured emissions of the test batches with test substance are compared to those of control batches without test substance (only dimethyl sulfoxide instead of test substance in dimethyl sulfoxide), and IC50 values are calculated from the concentration/activity relationships. Activity data from this test are listed in Table B below (some as mean values from multiple independent individual determinations): […]

human factor XIa = target: T2, human factor XIa (Homo sapiens, UniProt P03951); assay: Measurement of FXIa inhibition (fluorogenic peptide substrate Boc-Glu(OBzl)-Ala-Arg-AMC); type: biochemical; details: factor XIa from Kordia, 15 min preincubation, 30 min at 22° C., fluorescence; some as mean values from multiple determinations
T2 construct: purchased Kordia
T2 sequence (P03951 388-625 limits assumed): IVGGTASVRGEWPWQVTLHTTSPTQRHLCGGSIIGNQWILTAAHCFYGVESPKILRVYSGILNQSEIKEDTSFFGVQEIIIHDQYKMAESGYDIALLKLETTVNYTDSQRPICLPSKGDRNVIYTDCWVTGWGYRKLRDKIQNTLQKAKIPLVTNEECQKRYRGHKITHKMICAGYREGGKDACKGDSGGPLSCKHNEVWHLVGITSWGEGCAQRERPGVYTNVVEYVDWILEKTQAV
T2 sequence (P03951 19-387 partner limits assumed): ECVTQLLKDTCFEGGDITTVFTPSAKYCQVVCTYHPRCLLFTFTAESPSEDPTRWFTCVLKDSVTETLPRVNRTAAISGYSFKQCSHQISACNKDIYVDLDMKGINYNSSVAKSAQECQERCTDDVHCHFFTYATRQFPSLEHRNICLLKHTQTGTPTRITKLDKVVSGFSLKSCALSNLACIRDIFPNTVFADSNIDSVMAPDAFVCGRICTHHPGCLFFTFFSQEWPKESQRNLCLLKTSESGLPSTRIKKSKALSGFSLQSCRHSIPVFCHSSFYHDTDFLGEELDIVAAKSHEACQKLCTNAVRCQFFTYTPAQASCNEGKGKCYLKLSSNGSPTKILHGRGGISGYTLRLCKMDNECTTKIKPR
Experimental: as §1, with “The factor XIa” for “To determine the plasma kallikrein”, “invention is determined using” for “invention,”, “system” for “system is used”, “factor XIa” for “plasma kallikrein”, “factor XIa.” for “plasma kallikrein.”
Test substances are dissolved in dimethyl sulfoxide and serially diluted in dimethyl sulfoxide (3000 μM to 0.0078 μM; resulting final concentrations in the test: 50 μM to 0.00013 μM). In each case 1 μl of the diluted substance solutions is placed into the wells of white microtitre plates from Greiner (384 wells). 20 μl of assay buffer (50 mM of Tris/HCl pH 7.4; 100 mM of sodium chloride; 5 mM of calcium chloride; 0.1% of bovine serum albumin) and 20 μl of factor XIa from Kordia (0.45 nM in assay buffer) are then added successively. After 15 min of incubation, the enzyme reaction is started by addition of 20 μl of the factor XIa substrate Boc-Glu(OBzl)-Ala-Arg-AMC dissolved in assay buffer (10 μM in assay buffer) from Bachem, the mixture is incubated at room temperature (22° C.) for 30 min and fluorescence is then measured (excitation: 360 nm, emission: 460 nm). The measured emissions of the test batches with test substance are compared to those of control batches without test substance (only dimethyl sulfoxide instead of test substance in dimethyl sulfoxide), and IC50 values are calculated from the concentration/activity relationships.

Compound	IC50 (human plasma kallikrein)	IC50 (human factor XIa)
C[C@@H]1Cc2ccc(Cl)cc2-c2cc(=O)n([C@@H](CCOC3CC3)C(=O)Nc3ccc(C(N)=O)cc3)cc2CO1 (single isomer, unassigned) [Example 27]	71 nM	6.6 nM
CC[C@@H](C(=O)Nc1ccc(C(N)=O)cc1)n1cc2c(cc1=O)-c1c(ccc(Cl)c1F)C[C@@H](C)OC2 (single isomer, unassigned) [Example 28]	190 nM	12 nM
CO[C@@H](C)C[C@@H](C(=O)Nc1ccc(C(N)=O)cc1)n1cc2c(cc1=O)-c1c(ccc(Cl)c1F)C[C@@H](C)OC2 (single isomer, unassigned) [Example 29]	47 nM	1.6 nM
CC[C@@H]1Cc2ccc(Cl)cc2-c2cc(=O)n([C@@H](C[C@@H]3CCCCO3)C(=O)Nc3ccc(C(N)=O)c(F)c3)cc2CO1 (single isomer, unassigned) [Example 31]	980 nM	13 nM
NC(=O)c1ccc(NC(=O)[C@H](C[C@@H]2CCCCO2)n2cc3c(cc2=O)-c2cc(Cl)ccc2C[C@@H](CO)OC3)cc1F (single isomer, unassigned) [Example 33]	480 nM	9.1 nM
NC(=O)c1ccc(NC(=O)[C@H](C[C@@H]2CCCCO2)n2cc3c(cc2=O)-c2cc(Cl)ccc2C[C@@H](CO)OC3)cc1 (single isomer, unassigned) [Example 35]	170 nM	2.1 nM
NC(=O)c1ccc(NC(=O)[C@H](C[C@@H]2COCCO2)n2cc3c(cc2=O)-c2cc(Cl)ccc2C[C@@H](CO)OC3)cc1 (single isomer, unassigned) [Example 37]	320 nM	6 nM
CC(C)[C@@H]1Cc2ccc(Cl)cc2-c2cc(=O)n([C@@H](C[C@@H]3COCCO3)C(=O)Nc3ccc(C(N)=O)c(F)c3)cc2CO1 (single isomer, unassigned) [Example 41]	1600 nM	10 nM
CC(C)[C@@H]1Cc2ccc(Cl)cc2-c2cc(=O)n([C@@H](C[C@@H]3COCCO3)C(=O)Nc3ccc(C(N)=O)cc3)cc2CO1 (single isomer, unassigned) [Example 43]	380 nM	1.7 nM
CC(C)[C@@H]1Cc2ccc(Cl)cc2-c2cc(=O)n([C@@H](C[C@@H]3COCCO3)C(=O)Nc3ccc4nn(C)nc4c3)cc2CO1 (single isomer, unassigned) [Example 45]	660 nM	17 nM
CC[C@@H](C(=O)Nc1ccc(C(N)=O)c(F)c1)n1cc2c(cc1=O)-c1cc(Cl)ccc1C[C@@H](C(F)F)OC2 (single isomer, unassigned) [Example 47]	1500 nM	56 nM
NC(=O)c1ccc(NC(=O)[C@H](C[C@@H]2CCCCO2)n2cc3c(cc2=O)-c2cc(Cl)ccc2C[C@@H](C(F)F)OC3)cc1F (single isomer, unassigned) [Example 49]	370 nM	4.7 nM
NC(=O)c1ccc(NC(=O)[C@H](C[C@@H]2CCCCO2)n2cc3c(cc2=O)-c2cc(Cl)ccc2C[C@@H](C(F)(F)F)OC3)cc1F (single isomer, unassigned) [Example 51]	360 nM	4.2 nM
NC(=O)c1ccc(NC(=O)[C@H](C[C@@H]2CCCCO2)n2cc3c(cc2=O)-c2cc(Cl)ccc2C[C@@H](C(F)(F)F)OC3)cn1 (single isomer, unassigned) [Example 53]	300 nM	2.3 nM
NC(=O)c1ccc(NC(=O)[C@H](C[C@@H]2CCCCO2)n2cc3c(cc2=O)-c2cc(Cl)ccc2C[C@@H](C(F)(F)F)OC3)cc1 (single isomer, unassigned) [Example 55]	91 nM	0.5 nM
NC(=O)c1ccc(NC(=O)[C@H](C[C@@H]2COCCO2)n2cc3c(cc2=O)-c2cc(Cl)ccc2C[C@@H](C(F)(F)F)OC3)cc1F (single isomer, unassigned) [Example 57]	310 nM	3.8 nM
NC(=O)c1ccc(NC(=O)[C@H](C[C@@H]2COCCO2)n2cc3c(cc2=O)-c2cc(Cl)ccc2C[C@@H](C(F)(F)F)OC3)cc1 (single isomer, unassigned) [Example 59]	89 nM	0.9 nM

Compound	IC50 (human plasma kallikrein)	IC50 (human factor XIa)
COCC[C@@H](C(=O)Nc1ccc(C(N)=O)c(F)c1)n1cc2c(cc1=O)-c1cc(Cl)ccc1C[C@@H](C(F)(F)F)OC2 (single isomer, unassigned) [Example 61]	340 nM	10 nM
COCC[C@@H](C(=O)Nc1ccc(C(N)=O)cc1)n1cc2c(cc1=O)-c1cc(Cl)ccc1C[C@@H](C(F)(F)F)OC2 (single isomer, unassigned) [Example 63]	110 nM	2.5 nM
COCC[C@@H](C(=O)Nc1ccn2ncnc2c1)n1cc2c(cc1=O)-c1cc(Cl)ccc1C[C@@H](C(F)(F)F)OC2 (single isomer, unassigned) [Example 65]	120 nM	6.8 nM
CO[C@@H](C)C[C@@H](C(=O)Nc1ccc(C(N)=O)cc1)n1cc2c(cc1=O)-c1cc(Cl)ccc1C[C@@H](C(F)(F)F)OC2 (single isomer, unassigned) [Example 67]	220 nM	3.5 nM
CC[C@@H](C(=O)Nc1ccc(C(N)=O)cc1)n1cc2c(cc1=O)-c1c(ccc(Cl)c1F)C[C@@H](C(F)(F)F)OC2 (single isomer, unassigned) [Example 68]	170 nM	6.9 nM
NC(=O)c1ccc(NC(=O)[C@H](C[C@@H]2CCCCO2)n2cc3c(cc2=O)-c2c(ccc(Cl)c2F)C[C@@H](C(F)(F)F)OC3)cc1 (single isomer, unassigned) [Example 69]	55 nM	1.1 nM
CC[C@@H](C(=O)Nc1ccc(C(N)=O)cc1)n1cc2c(cc1=O)-c1c(ccc(Cl)c1Cl)C[C@@H](C(F)(F)F)OC2 (single isomer, unassigned) [Example 70]	580 nM	64 nM
CC[C@@H](C(=O)Nc1ccc(C(N)=O)c(F)c1)n1cc2c(cc1=O)-c1cc(Cl)ccc1C[C@@H](C)O[C@H]2C (single isomer, unassigned) [Example 71]	225 nM	3.5 nM
C[C@@H]1Cc2ccc(Cl)cc2-c2cc(=O)n([C@@H](C[C@@H]3CCCCO3)C(=O)Nc3ccc(C(N)=O)c(F)c3)cc2[C@H](C)O1 (single isomer, unassigned) [Example 72]	65 nM	2.5 nM
C[C@@H]1Cc2ccc(Cl)cc2-c2cc(=O)n([C@@H](C[C@@H]3CCCCO3)C(=O)Nc3ccc(C(N)=O)cc3)cc2[C@H](C)O1 (single isomer, unassigned) [Example 73]	27 nM	0.8 nM
CO[C@@H](C)C[C@@H](C(=O)Nc1ccc(C(N)=O)cc1)n1cc2c(cc1=O)-c1cc(Cl)ccc1C[C@@H](C)O[C@H]2C (single isomer, unassigned) [Example 74]	30 nM	1.4 nM
CC[C@@H](C(=O)Nc1ccc(C(N)=O)cc1)n1cc2c(cc1=O)-c1c(ccc(Cl)c1F)C[C@@H](C)O[C@H]2C (single isomer, unassigned) [Example 75]	40 nM	5.9 nM
C[C@@H]1Cc2ccc(Cl)cc2-c2cc(=O)n([C@@H](C)C(=O)Nc3ccc(C(N)=O)cc3)cc2CO1 (single isomer, unassigned) [Example 76]	190 nM	9.8 nM
C[C@@H](C(=O)Nc1ccc(C(N)=O)cc1)n1cc2c(cc1=O)-c1c(ccc(Cl)c1F)C[C@@H](C(F)(F)F)OC2 (single isomer, unassigned) [Example 77]	220 nM	9.6 nM
CO[C@@H](C)C[C@@H](C(=O)Nc1ccc(C(N)=O)cc1)n1cc2c(cc1=O)-c1c(ccc(Cl)c1F)C[C@@H](C(F)(F)F)OC2 (single isomer, unassigned) [Example 78]	74 nM	1.5 nM
CO[C@@H](C)C[C@@H](C(=O)Nc1ccc(C(N)=O)cc1)n1cc2c(cc1=O)-c1c(ccc(Cl)c1F)C[C@@H](C)O[C@H]2C (single isomer, unassigned) [Example 79]	250 nM	26 nM
